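Compound exposure: 48 hours, 5 concentrations, 96-well plates. Abbreviation: GI50, concentration required for 50% inhibition of growth.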 Activity calls are given as the source filed them. Cut-off read from the data, not from the text of the source: active = GI50 up to about 1.1 µM and inactive = higher.
Experiments:
Assay in all cases: NCI tumour cell line growth inhibition, 48 h
A549 = test system: A549
UACC-62 = test system: UACC-62
MOLT-4 = test system: MOLT-4
SR = test system: SR
HOP-92 = test system: HOP-92
OVCAR-3 = test system: OVCAR-3
NCI-H460 = test system: NCI-H460
IGROV-1 = test system: IGROV-1
U-251 = test system: U-251
HL-60 = test system: HL-60
786-0 = test system: 786-0
BT-549 = test system: BT-549
PC-3 = test system: PC-3
HCT-116 = test system: HCT-116
SF-268 = test system: SF-268
CAKI-1 = test system: CAKI-1
SK-MEL-5 = test system: SK-MEL-5
HCT-15 = test system: HCT-15
HT-29 = test system: HT-29
M14 = test system: M14

Row | SMILES | GI50 (A549) | GI50 (UACC-62) | GI50 (MOLT-4) | GI50 (SR) | GI50 (HOP-92) | GI50 (OVCAR-3) | GI50 (NCI-H460) | GI50 (IGROV-1) | GI50 (U-251) | GI50 (HL-60) | GI50 (786-0) | GI50 (BT-549) | GI50 (PC-3) | GI50 (HCT-116) | GI50 (SF-268) | GI50 (CAKI-1) | GI50 (SK-MEL-5) | GI50 (HCT-15) | GI50 (HT-29) | GI50 (M14)
1 | Cn1c2cc(Cl)ccc2c2ccc3c(c21)C(=O)C=CC3=O | > 100 µM (inactive) | 21.5 µM (inactive) | 2.75 µM (inactive) | 6.07 µM (inactive) | 19 µM (inactive) | 11.7 µM (inactive) | > 100 µM (inactive) | 28.4 µM (inactive) | 45.9 µM (inactive) | 13.5 µM (inactive) | 18.8 µM (inactive) | 25.6 µM (inactive) | 25.8 µM (inactive) | 20.8 µM (inactive) | 38.6 µM (inactive) | 13.5 µM (inactive) | 39.8 µM (inactive) | 22.4 µM | 31.4 µM (inactive) | 23.7 µM (inactive)
2 | O=C1/C(=C/c2ccccc2)CCC/C1=C\c1ccc(O)c(CN2CCCCC2)c1 | 7.59 µM (inactive) | 3.59 µM (inactive) | 3.1 µM (inactive) | 1.05 µM (active) | 4.55 µM (inactive) | 6.98 µM (inactive) | 4.66 µM (inactive) | 3.72 µM (inactive) | 3.17 µM (inactive) | 3.49 µM (inactive) | 1.69 µM (inactive) | 2.84 µM (inactive) | 4.56 µM (inactive) | 1.57 µM (inactive) | 5.07 µM (inactive) | 8.07 µM (inactive) | 2.92 µM (inactive) | 1.78 µM | 1.77 µM (inactive) | 3.26 µM (inactive)
3 | CN(C)CCCCN1c2ccccc2Sc2cc(N=[N+]=[N-])ccc21 | 1.79 µM (inactive) | 1.85 µM (inactive) | 1.93 µM (inactive) | 2.54 µM (inactive) | 2.74 µM (inactive) | 1.89 µM (inactive) | 1.89 µM (inactive) | 1.73 µM (inactive) | 2.04 µM (inactive) | 2.11 µM (inactive) | 1.69 µM (inactive) | 11 µM (inactive) | 1.86 µM (inactive) | 1.78 µM (inactive) | 2.38 µM (inactive) | 1.84 µM (inactive) | 1.73 µM (inactive) | 1.85 µM | 1.55 µM (inactive) | 1.69 µM (inactive)
4 | C=C(C1=CC(=O)C(C)(C)O1)[C@@H]1CC=C([C@@H]2CC[C@H]3[C@@]2(C)CC[C@H]2C(C)(C)C(=O)[C@H](OC(=O)CC(C)(O)CC(=O)O)C[C@]32C)[C@H](O)O1 (stereo not given in full) | 17.6 µM (inactive) | 12.1 µM (inactive) | 4.14 µM (inactive) | 12.6 µM (inactive) | 12.7 µM (inactive) | 11.9 µM (inactive) | 15.9 µM (inactive) | 12.4 µM (inactive) | 13.5 µM (inactive) | 17.7 µM (inactive) | 11.1 µM (inactive) | 2.06 µM (inactive) | 13.2 µM (inactive) | 12.9 µM (inactive) | 10.9 µM (inactive) | 17.2 µM (inactive) | 12.5 µM (inactive) | 13.3 µM | 16.8 µM (inactive) | 13.5 µM (inactive)
5 | CO/C(N)=C(C#N)/N=C/c1ccccc1 | > 100 µM (inactive) | 48 µM (inactive) | > 100 µM (inactive) | > 100 µM (inactive) | > 100 µM (inactive) | > 100 µM (inactive) | > 100 µM (inactive) | > 100 µM (inactive) | > 100 µM (inactive) | 35.7 µM (inactive) | > 100 µM (inactive) | > 100 µM (inactive) | > 100 µM (inactive) | > 100 µM (inactive) | > 100 µM (inactive) | > 100 µM (inactive) | > 100 µM (inactive) | > 100 µM | 51.3 µM (inactive) | 79.6 µM (inactive)
6 | Cc1nc(C(N)=S)sc1C(=O)CC(=O)C(=O)Nc1cccc(Cl)c1C | > 100 µM (inactive) | > 100 µM (inactive) | > 100 µM (inactive) | > 100 µM (inactive) | > 100 µM (inactive) | > 100 µM (inactive) | > 100 µM (inactive) | > 100 µM (inactive) | > 100 µM (inactive) | > 100 µM (inactive) | > 100 µM (inactive) | > 100 µM (inactive) | > 100 µM (inactive) | > 100 µM (inactive) | > 100 µM (inactive) | > 100 µM (inactive) | > 100 µM (inactive) | > 100 µM | > 100 µM (inactive) | > 100 µM (inactive)
7 | O=C(O)/C(=C/C(=O)c1ccc(Cl)cc1)NNc1ccc([N+](=O)[O-])cc1[N+](=O)[O-] | 40.6 µM (inactive) | 38.7 µM (inactive) | 42 µM (inactive) | 50.9 µM (inactive) | 22.9 µM (inactive) | 33.3 µM (inactive) | 34.3 µM (inactive) | 66.7 µM (inactive) | 47.9 µM (inactive) | 49.3 µM (inactive) | 27 µM (inactive) | 23.2 µM (inactive) | 36.2 µM (inactive) | 19.6 µM (inactive) | 38.7 µM (inactive) | 24.8 µM (inactive) | > 100 µM (inactive) | 48.3 µM | 64.1 µM (inactive) | 42.1 µM (inactive)
8 | O=[N+]([O-])c1ccc(-n2nc3ccc4nonc4c3n2)cc1 | 72.1 µM (inactive) | 32.5 µM (inactive) | > 100 µM (inactive) | > 100 µM (inactive) | 19.6 µM (inactive) | 71.4 µM (inactive) | 37.3 µM (inactive) | 27.9 µM (inactive) | 77.1 µM (inactive) | > 100 µM (inactive) | 28.1 µM (inactive) | 22.7 µM (inactive) | 74.3 µM (inactive) | 74.6 µM (inactive) | 34.3 µM (inactive) | 22.7 µM (inactive) | 31.2 µM (inactive) | > 100 µM | > 100 µM (inactive) | 52.1 µM (inactive)
9 | O=C1c2c(nc3ccccc3c2-c2ccccc2)CN1Nc1ccccn1 | 59.4 µM (inactive) | > 83 µM (inactive) | 71.4 µM (inactive) | 58.1 µM (inactive) | 38.4 µM (inactive) | 75 µM (inactive) | 40.6 µM (inactive) | 81.8 µM (inactive) | 66.7 µM (inactive) | 97.9 µM (inactive) | > 74.5 µM (inactive) | > 79.1 µM (inactive) | > 89.7 µM (inactive) | 79.8 µM (inactive) | 75.9 µM (inactive) | 47.3 µM (inactive) | 74.5 µM (inactive) | > 75.5 µM | > 100 µM (inactive) | > 100 µM (inactive)
10 | CC(C)(C)OC(=O)N(CCCN)CCCCN | > 100 µM (inactive) | > 100 µM (inactive) | > 100 µM (inactive) | > 100 µM (inactive) | > 100 µM (inactive) | > 100 µM (inactive) | > 100 µM (inactive) | > 100 µM (inactive) | > 100 µM (inactive) | > 100 µM (inactive) | > 100 µM (inactive) | > 100 µM (inactive) | > 100 µM (inactive) | > 100 µM (inactive) | > 100 µM (inactive) | > 100 µM (inactive) | > 100 µM (inactive) | > 100 µM | > 100 µM (inactive) | > 100 µM (inactive)

From ChEMBL document CHEMBL1201862, “PubChem BioAssay data set” (2004)
